Test results reported in ChEMBL document CHEMBL4145452, “Polymeric bile acid sequestrants: Review of design, in vitro binding activities, and hypocholesterolemic effects” (Eur J Med Chem, 2018).

Species: Homo sapiens
Test: Hypocholesterolemic effect in hypercholesterolemia patient assessed as decrease in LDL cholesterol level
Type: functional
Design: scale not given: the % may be the effect or the level left

CC[C@H](C)C(=O)O[C@H]1C[C@@H](C)C=C2C=C[C@H](C)[C@H](CC[C@@H]3C[C@@H](O)CC(=O)O3)[C@H]21 [LOVASTATIN]
Activity: 22%
